Experimental data from paper PMC6257627, “Target Validation and Identification of Novel Boronate Inhibitors of the Plasmodium falciparum Proteasome” (Journal of Medicinal Chemistry, 2018).
Where two headings read alike, the source gives them in different places.

What was measured:
[1] = test system: bortezomib-resistant 3D7 B1 line (clone B1a); experiment: 72 h viability assay, bortezomib-resistant B1 line / clone B1a; type: cell-based, Plasmodium falciparum; conditions: for bortezomib-resistant 3D7 B1 line LD50 (72 h): ring stage; for Bortezomib-resistant3D7 B1 LD50 (72-h): supplement CSV
Description: (§1) For standard assays of antiplasmodial activity, sorbitol-treated ring stage parasites were incubated with the drugs for 72 h and viability was assessed in the second cycle.[12] Drug pulse assays were performed as described previously.[47] For short pulse assays, tightly synchronized early ring stage parasites (1–3 h after invasion) at 0.2% hematocrit and 1–2% parasitemia were subjected to 3 h drug pulse at 37 °C and returned to culture until parasites reached trophozoite stage of the following cycle. Cells were then stained with 2 μM Syto-61 (Thermo Fisher Scientific), and their fluorescence was measured by flow cytometry (FACSCanto II cytometer; Becton Dickinson). Data were gated and analyzed using FCS Express software (version 3) to determine parasitemia of each sample. Viability represents the parasitemia normalized to untreated and “kill treated” controls, where “kill treated” refers to samples treated with 2 μM DHA for 48–72 h. Interactions between DHA and MPI-1 or MPI-4 against the K13 mutant (DHA resistant) Cam3.II P. falciparum strain, exposed to a 3 h pulsed treatment, were determined at 4 h after invasion as described previously.[12]
Prior to selection, an aliquot of the parental line was stocked as a reference for subsequent whole genome sequencing analysis. Several independent clones of P. falciparum 3D7 parasite line were cultured in Petri dishes exposed to increasing drug pressure for ∼30 weeks. Parasites were cloned by limiting dilution. For parasite extraction and genomic DNA isolation, cultures were scaled up to at least 4–5% parasitaemia, lysed in saponin, and genomic DNA was isolated using ISOLATE II Genomic DNA kit (Bioline). DNA libraries for each gDNA sample were prepared for sequencing using the Nextera XT kit as described previously.[50] Libraries were clustered and run on an Illumina HiSeq 2500 using the RapidRun mode, sequencing 100 base pairs in depth on either end. Paired-end reads were either aligned to the P. falciparum 3D7 reference genome (PlasmoDB version 13.0).

[2] = test system: P. falciparum 3D7 parasites; experiment: Standard 72 h antiplasmodial viability assay, 3D7; type: cell-based, Plasmodium falciparum; conditions: for Pf3D7 LD50 (72 h): sorbitol-treated ring stage, viability in next cycle (~72 h); for Pf3D7 LD50 (72-h): supplement CSV
Description: P. falciparum parasites used in this study were propagated in O+ human erythrocytes (Australian Red Cross Blood Service) in RPMI-1640, supplemented with GlutaMAX, 25 mM HEPES (Thermo Fisher Scientific), 5% (v/v) human serum (Australian Red Cross Blood Service), 0.25% (w/v) AlbuMAX II (Thermo Fisher Scientific), 10 μM D-glucose, 22 μg/mL gentamycin (Sigma-Aldrich), and 0.5 mM hypoxanthine (Sigma-Aldrich) and incubated at 37 °C in an atmosphere of 1% O2, 5% CO2, and 94% N2. Cultures were monitored by Giemsa staining of methanol-fixed blood smears. Culture medium was replaced at least every 48 h, and parasitemia was maintained below 10% to ensure health of cultures. The GFP-DD reporter strain was kindly provided by Dr. Paul Gilson, Dr. Brendan Crabb, and Dr. Mauro F. Azevedo (Burnet Institute).
as §1

[3] = test system: P. falciparum Cam3.II^R539T; experiment: 3 h pulsed exposure viability assay, K13 mutant early rings; type: cell-based, Plasmodium falciparum; conditions: for Cam3.II^R539T LD50 (3 h): early ring (1–3 h p.i.), 3 h pulse, viability in next cycle, mean ± SEM, n=3; for Cam3.IIR539T LD50 (3-h): supplement CSV
Description: as §1

[4] = test system: Pf20S proteasome β1, β2, β5 subunits; type: biochemical, P. falciparum
HepG2 cells = experiment: HepG2 cellular toxicity (CellTiter-Glo, 72 h); type: cell-based, human; conditions: for HepG2 LD50 (72 h): 72 h incubation, mean ± SEM or half range, 2–4 experiments; for HepG2 LD50( 72-h): supplement CSV
HCT116 cells = experiment: HCT116 cellular toxicity (CellTiter-Glo, 72 h); type: cell-based, human; conditions: for HCT116 LD50 (72 h): 72 h incubation, mean ± SEM or half range, 2–4 experiments; for HCT116 LD50 (72-h): supplement CSV
Description: HCT-116 and HepG2 cells were obtained from the American Type Culture Collection and maintained as recommended by the supplier. Cells were cultured in the ATCC-formulated McCoy’s 5A medium or DMEM (Life Technologies, CA), supplemented with fetal bovine serum to a final concentration of 9–10%, and incubated at 37 °C in an atmosphere of 95% air and 5% CO2. Cellular toxicity assays were performed using Promega’s CellTiter-Glo assay system. Varying concentrations of the test compounds in 5% DMSO/95% PBS were dispensed into a 384-well plate and cells added to each well. The plates were incubated at 37 °C for 72 h, and the CellTiter-Glo assay to assess cell viability was performed as described by the manufacturer (Promega).
For human cell line activity assays, cellular toxicity assays were performed as described previously.[23],[48]

[5] = test system: P. falciparum Cam3.II^Rev; experiment: 3 h pulsed exposure viability assay, K13 wild-type revertant early rings; type: cell-based, Plasmodium falciparum; conditions: for Cam3.II^Rev LD50 (3 h): early ring (1–3 h p.i.), 3 h pulse, viability in next cycle, mean ± SEM, n=3; for Cam3.IIRev LD50 (3-h): supplement CSV
Description: as §1

[6] = test system: human constitutive proteasome and immunoproteasome catalytic subunits; experiment: BMV037 active site probe competition, purified human 20S proteasomes; type: biochemical; conditions: for subunit specificity by BMV037 probe labeling, human constitutive proteasome and immunoproteasome: compounds 1 h, probe 2 h
[7] = test system: Pf20S proteasome subunits of bortezomib-resistant parasites; experiment: BMV037 active site probe competition, bortezomib-resistant parasites; type: biochemical, P. falciparum; conditions: compounds 1 h
Description: Figure 3 Active site probe analysis of the proteasome subunit specificity of the selected compounds in 3D7 parent and bortezomib-resistant parasites. Purified Pf20S proteasome from wild-type 3D7 (A) and bortezomib-resistant (C) parasites or wild-type 3D7 (B) and bortezomib-resistant (D) trophozoite-infected erythrocytes were treated with compounds for 1 h, and activity-based probe (BMV037) labeling was performed (postlysis for the trophozoite samples). Fluorescent gel scans reveal subunits that remain active after treatment.
P. falciparum culture, purified Pf20S proteasomes, human constitutive proteasomes, or immunoproteasomes (Boston Biochem) were incubated with test compounds at 37 °C for 1 h. Treated parasite lysates (10 μg), Pf20S proteasomes (80 nM), human constitutive proteasomes (20 nM), or immuno-20S proteasomes (20 nM) were labeled with BMV037 (10 μM) at 37 °C for 2 h. Samples were mixed with SDS loading buffer and heated at 95 °C for 5 min. Samples for P. falciparum and human immuno-20S were run on 4–12% Bis-Tris acrylamide gels using MES SDS running buffer (Thermo Fisher Scientific). Human constitutive 20S samples were run on a 10% Bis-Tris acrylamide gel using MOPS SDS running buffer (Thermo Fisher Scientific). Gels were imaged at the Cy5 channel on a Gel Doc XR+ Documentation System (Bio-Rad) or an Amersham Typhoon Trio imager (GE Healthcare Life Sciences).

[8] = compounds 1 h, purified Pf20S or infected erythrocytes

| SMILES | bortezomib-resistant 3D7 B1 line LD50 (72 h) ([1]; mean ± SEM, n=3) [µM] | Bortezomib-resistant3D7 B1 LD50 (72-h) [1] [µM] | Pf3D7 LD50 (72 h) ([2]; mean ± SEM, n=3) [µM] | Pf3D7 LD50 (72-h) [2] [µM] | Cam3.II^R539T LD50 (3 h) [3] [µM] | Cam3.IIR539T LD50 (3-h) [3] [µM] | subunit specificity by BMV037 probe labeling, wild-type 3D7 [4, 8] | HepG2 LD50 (72 h) (HepG2 cells) [µM] | HepG2 LD50( 72-h) (HepG2 cells) [µM] | HCT116 LD50 (72 h) (HCT116 cells) [µM] | HCT116 LD50 (72-h) (HCT116 cells) [µM] | Cam3.II^Rev LD50 (3 h) [5] [µM] | Cam3.IIRev LD50 (3-h) [5] [µM] | subunit specificity by BMV037 probe labeling, human constitutive proteasome and immunoproteasome [6] | BMV037 labeling of the β5 active site in bortezomib-resistant parasites [7] | also measured |
| --- | --- | --- | --- | --- | --- | --- | --- | --- | --- | --- | --- | --- | --- | --- | --- | --- |
| CC(=O)N1CCC[C@@H]1C(=O)N[C@@H](C)C(=O)N[C@@H](Cc1ccccc1)B(O)O [MPI-1] | 0.23 ± 0.04 | 0.23 ± 0.04 | 0.12 ± 0.01 | 0.12 ± 0.01 | 0.82 ± 0.06 | 0.82 ± 0.06 | preferentially inhibited binding of the probe to the β5 subunit | 6.7 ± 3.2 | 6.7 ± 3.2 | 0.79 ± 0.01 | 0.79 ± 0.01 | 0.9 ± 0.1 | 0.9 ± 0.1 | preferentially targeted the β5 subunits | still able to prevent BMV037 labeling of the β5 active site | binding of the BMV037 probe to β5c after treatment ([6]; 10 μM): did not completely ablate binding of the probe to β5c |
| CC(C)C[C@H](NC(=O)[C@H](Cc1ccccc1)NC(=O)c1cnccn1)B(O)O [bortezomib, reference compound] | – | 1.3 ± 0.1 | 0.06 ± 0.01 | 0.06 ± 0.01 | 0.12 ± 0.02 | 0.12 ± 0.02 | – | 0.03 ± 0.02 | 0.03 ± 0.02 | 0.006 ± 0.001 | 0.006 ± 0.001 | 0.18 ± 0.06 | 0.18 ± 0.06 | preferentially inhibits the β1 and β5 subunits | – | LD50 (72 h), 3D7 B1a ([1]; bortezomib, resistant clone B1a, mean ± SEM, n=3): 1.3 ± 0.1 µM; IC50 ([2]; Plasmodium falciparum, 3D7, dose–response profiles, n = 3, read-out: 50% viability inhibitory concentration against 3D7 parasites): ~0.06 µM; LD50 (72 h), 3D7 parent ([2]; bortezomib, wild-type parent clone, mean ± SEM, n=3): 0.06 ± 0.01 µM; subunit specificity by BMV037 probe labeling, wild-type 3D7 [4]: preferential inhibition of the β5 activity; BMV037 competition profile in bortezomib-resistant parasites [7]: unable to prevent binding of the probe |
| CC(C)C[C@H](NC(=O)[C@H](Cc1ccccc1)NC(=O)Cc1ccc(O)cc1)B(O)O [MPI-4] | 0.077 ± 0.001 | 0.077 ± 0.001 | 0.061 ± 0.007 | 0.061 ± 0.007 | 0.16 ± 0.01 | 0.16 ± 0.01 | inhibited both β2 and β5 activities | 0.04 ± 0.01 | 0.04 ± 0.01 | 0.025 ± 0.014 | 0.025 ± 0.014 | 0.18 ± 0.02 | 0.18 ± 0.02 | preferential inhibition of the β1 and β5 subunits | did not prevent labeling of the β5 active site | cross-resistance of the bortezomib-resistant parasite line (B1) ([1]; growth inhibition, versus 3D7): retained sensitivity; BMV037 labeling of the β2 active site in bortezomib-resistant parasites [7]: completely inhibit BMV037 labeling of the β2 active site |
